Laboratory results taken from PubChem BioAssay (NCI).
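Briefly, cells in 96-well plates were exposed to five compound concentrations for 48 h, and endpoints were estimated by linear interpolation. At the GI50, growth is halved. TGI: concentration producing complete growth inhibition.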

Assays:
Experiment in all cases: inhibition of tumour cell growth, NCI panel, 48 h
[1] = test system: HL-60(TB) leukemia
[2] = test system: K-562 leukemia
[3] = test system: MDA-MB-231 breast
[4] = test system: NCI-H460 lung
[5] = test system: NCI-H522 lung
[6] = test system: OVCAR-8 ovarian
[7] = test system: SF-268 CNS
[8] = test system: SK-OV-3 ovarian
[9] = test system: U251 CNS
[10] = test system: UACC-257 melanoma

SMILES	GI50 [1] [µM]	TGI [1] [µM]	GI50 [2] [µM]	TGI [2] [µM]	GI50 [3] [µM]	TGI [3] [µM]	GI50 [4] [µM]	TGI [4] [µM]	GI50 [5] [µM]	TGI [5] [µM]	GI50 [6] [µM]	TGI [6] [µM]	GI50 [7] [µM]	TGI [7] [µM]	GI50 [8] [µM]	TGI [8] [µM]	GI50 [9] [µM]	TGI [9] [µM]	GI50 [10] [µM]	TGI [10] [µM]
CN1CCN(c2nc(-c3ccncc3)nc3sc4c(c23)CCCCCC4)CC1	12.6	29.8	3.53	16.3	4.26	18.7	13.5	29	12	24.6	12.2	26.3	5.34	20.7	12.2	24.6	9.29	25	10.6	23
CC1CCC2N(C1)CC1C3(O)CC45OC6(O)C(O)CCC4(C)C6CCC5C3(O)CC(O)C1(O)C2(C)O (stereo not given)	–	> 100	–	> 100	–	> 100	–	> 100	–	> 100	–	> 100	–	> 100	–	> 100	–	> 100	–	> 100
COc1ccc(C(O)CC(O)(C(F)(F)F)C(F)(F)F)cc1 (stereo not given)	–	37	–	53.6	–	> 100	–	60.6	–	> 100	–	> 100	–	> 100	–	> 100	–	> 100	–	51.8
CC/C=C\C/C=C\C[C@H](O)C/C=C1/C(=O)C=C[C@@H]1C/C=C\CCCC(=O)OC	1.71	6.06	0.546	12.5	3	10.3	3.2	10.7	1.03	2.36	0.774	13	2.57	11	5.27	15	1.45	2.83	1.83	4.32
Cc1nc(N)nc2ccccc12	–	> 100	–	> 100	–	> 100	–	> 100	–	> 100	–	> 100	–	> 100	–	> 100	–	> 100	–	> 100
O=C1CN(/N=C/c2ccc(-c3ccc(F)cc3)o2)C(=O)N1	–	> 100	–	> 100	–	> 100	–	> 100	–	85	–	> 100	–	> 100	–	> 100	–	> 100	–	> 100
CC(NC(=O)c1ccccc1)(C(=O)O)C(=O)O	–	> 100	–	> 100	–	> 100	–	> 100	–	> 100	–	> 100	–	> 100	–	> 100	–	> 100	–	> 100
CC1OC(OC2CCC3(C=O)C4CCC5(C)C(C6=CC(=O)OC6)CCC5(O)C4CCC3(O)C2)C(O)C(O)C1O (stereo not given)	–	0.000107	–	0.000263	–	0.0025	–	3.81e-05	–	4.41e-05	–	6.21e-05	–	4.11e-05	–	0.000102	–	0.000156	–	0.000259
